“And” between values parts separate entries of the source, which are not always exact repeats. Identical values can stand only once. Bounds are passed on as bounds.

The experiment deals with 843126-344-R-J1-PDC complex spheroid viability. The experiment is described as follows: Anticancer human tumor 843126-344-R-J1-PDC patient-derived melanoma cell line growth inhibition [POLQ]. The settings on record: for viability, T/C: stronger effect = lower value. The method, then: Multicellular complex tumor spheroid response to Polymerase (POL) inhibitors (novobiocin, ART-558, RP6685) in combination with a variety of drugs and investigational agents in selected tumor cell lines
The POL inhibitors (novobiocin, ART-558, and RP6685) were evaluated both individually and in combination with standard of care and investigational anticancer small molecules within a complex spheroid model of solid tumors. . Complex spheroids include a stromal component modeled by human endothelial cells (HUVEC) and fibroblasts modeled by human mesenchymal stem cells (MSCs). The concentration ranges selected for each drug and investigational agent were based upon clinically achievable concentrations if the clinical Cmax of the agent was known.
Compounds. The drugs and investigational agents: novobiocin (NSC847541), ART-558 (NSC835418), RP-6685 (NSC848927), peposertib (NSC802822), ceralasertib (NSC780249), elimusertib (NSC800525), camonsertib (NSC841442), AZD-1390 (NSC803789), olaparib (NSC753686), talazoparib (NSC767125), rucaparib (NSC756644), sotorasib (NSC818433), MRTX-1133 (NSC836407), SN-38 (NSC673596), topotecan (NSC609699), epotoside (NSC141540), doxorubicin (NSC123127), gemcitabine (NSC613327), 5-fluorouracil (NSC19893), paclitaxel (NSC125973), vemurafenib (NSC761431), MSA-2 (NSC828583), SN-011 (NSC837082), adavosertib (NSC754352), prexasertib (NSC758257), carboplatin (NSC241240) and oxaliplatin (NSC266046), were obtained from the National Cancer Institute (NCI) Developmental Therapeutics Program Chemical Repository (21). The FDA-approved anticancer drug set is available from the Developmental Therapeutics Program at https://dtp.cancer.gov/organization/dscb/obtaining/. […] The stock solutions were prepared in dimethyl sulfoxide (DMSO, Sigma-Aldrich, St. Louis, MO, cat. D2650), except for the platinum compounds which were prepared in saline (Quality Biological, Gaithersburg, MD, cat. 114-055-101), at 800-fold the tested concentration and stored at -70 degrees C prior to their use. All drugs and investigational agents were tested over a range starting from a high concentration at or near the clinical Cmax and decreasing in half-log increments. If the clinical Cmax for an agent had not been determined, the highest concentration tested was 10 microM, except for SN-38, which was tested at a high concentration of 1 microM.
Cell Culture. All cells were maintained in an incubator at 37 degrees C and 5% CO2 with 95% humidity. The PDC lines were cultured according to standard operating procedures established by the NCI PDMR (https://pdmr.cancer.gov). Table 3 of the manuscript, lists the cell lines along with the number of the three cell types plated to form the mct-spheroids and media for tumor cell growth. After thawing, all PDC lines, except 997537-175-T-J1-PDC and 415267-285-R-J2-PDC, were cultured in Matrigel-coated flasks prepared with a working solution of 1X Ham's F-12 nutrient mix, without supplementation (Thermo Fisher Scientific, cat. 11765054), 100 U/mL penicillin-streptomycin (Thermo Fisher Scientific, cat. 15140122), and 2.5% Matrigel (Corning Inc., Corning, NY, cat. 354248) for the first three passages. The two PDC lines 997537-175-T-J1-PDC and 415267-285-R-J2-PDC were cultured on uncoated flasks. The 857933-349-R-J2-PDC line was cultured in 6C/Colon 1B media containing advanced DMEM/F-12 (Thermo Fisher Scientific, cat. 12634028), 10 mM HEPES (Thermo Fisher Scientific, cat. 15630080), 1X GlutaMAX supplement (Thermo Fisher Scientific, cat. 35050061), 0.1 mg/mL primocin (InvivoGen, San Diego, CA, cat. ant-pm-2), 10% defined fetal bovine serum, heat inactivated (HyClone Laboratories Inc., Logan, UT, cat. SH30070.03HI), 50% L-WRN conditioned media (ATCC, cat. CRL-3276), 1.25 mM N-Acetyl-L-cysteine (Sigma-Aldrich, cat. A9165), 10 mM nicotinamide (Sigma-Aldrich, cat. N0636), 1X B-27 supplement (Thermo Fisher Scientific, cat. 17504044), 1X N-2 supplement (Thermo Fisher Scientific, cat. […]
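Throughout, for viability, T/C: spheroids exposed to drugs for seven days before readout.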

As to `COc1cccc2c1C(=O)c1c(O)c3c(c(O)c1C2=O)CC(O)(C(=O)CO)CC3OC1CC(N)C(O)C(C)O1` (configuration not stated), the viability, T/C reads like this: (compound 0.0316 µM) 82.8% and 77.3% and 86.3%; (compound 0.1 µM) 70.2% and 71% and 79.7%; (compound 0.316 µM) 44.3% and 47.8% and 56.8%; (compound 1 µM) 12.3% and 15.1% and 18.4%; (compound 3.16 µM) 4.78% and 2.95% and 3.66%; (compound 10 µM) 3.94% and 2.18% and 3.96%. Also, where the note is “curve of compound”, the IC50 was 237 nM and 282 nM and 385 nM.

For the compound `C=CCn1c(=O)c2cnc(Nc3ccc(N4CCN(C)CC4)cc3)nc2n1-c1cccc(C(C)(C)O)n1`, the viability, T/C (compound 0.00316 µM) was 101% and 96.6% and 95.3%; the viability, T/C (compound 0.01 µM) was 89.5% and 86.3% and 96.3%; the viability, T/C (compound 0.0316 µM) is 95.7% (2×) and 111%; the viability, T/C (compound 0.1 µM) is 109% and 97.8% and 99.3%; the viability, T/C (compound 0.316 µM) was 91.6% and 93.7% and 98.2%; the viability, T/C (compound 1 µM) was 81.1% and 78.6% and 82.7%. Also, where the note is “curve of compound”, the IC50 is greater than 1000 nM.

Regarding `O=C(Nc1ccc(O)c(NS(=O)(=O)c2ccc(F)cc2)c1)c1ccc(-c2ccccc2)cc1`, the viability, T/C by setting is: (compound 0.0316 µM) 105% and 76% and 99.6%; (compound 0.1 µM) 95.6% and 92.3% and 104%; (compound 0.316 µM) 105% and 88.3% and 87.2%; (compound 1 µM) 99.5% and 85.9% and 100%; (compound 3.16 µM) 87.3% and 85.3% and 95.2%; (compound 10 µM) 74.3% (2×) and 75.3%. The IC50 (curve of compound) is greater than 10000 nM.

As to `O=C(c1cc(Cc2n[nH]c(=O)c3ccccc23)ccc1F)N1CCN(C(=O)C2CC2)CC1`, the viability, T/C (compound 0.0316 µM) was 91.6% and 93.9% and 74.9%; the viability, T/C (compound 0.1 µM) was 78.7% and 90% and 91.5%; the viability, T/C (compound 0.316 µM) was 103% and 77.3% and 93.6%; the viability, T/C (compound 1 µM) is 74.1% and 76.7% and 83%; the viability, T/C (compound 3.16 µM) was 86.2% and 79.5% and 87.6%; the viability, T/C (compound 10 µM) was 81% and 72.1% and 82.1%. In addition, the IC50 (curve of compound) was greater than 10000 nM.

In the case of `COc1cc(C2c3cc4c(cc3C(OC3OC5COC(C)OC5C(O)C3O)C3COC(=O)C23)OCO4)cc(OC)c1O` (configuration not stated), the viability, T/C is 82.2% and 114% and 91.2% (compound 0.0316 µM); 95.3% and 90.7% and 102% (compound 0.1 µM); 90% and 97.6% and 83.3% (compound 0.316 µM); 90.9% and 79% and 81.2% (compound 1 µM); 58.2% and 68.9% and 66.3% (compound 3.16 µM); 50% and 52.2% and 41.9% (compound 10 µM). Also, the IC50 (curve of compound) is > 10000 nM and 6800 nM.

`Nc1ccn(C2OC(CO)C(O)C2(F)F)c(=O)n1` (configuration not stated): the viability, T/C is, setting by setting: (compound 0.0316 µM) 46.2% and 42.9% and 42.2%; (compound 0.1 µM) 38.7% and 36.8% (2×); (compound 0.316 µM) 47.1% and 45.8% and 33.8%; (compound 1 µM) 43% and 35% and 37.6%; (compound 3.16 µM) 41.3% and 39.6% and 33.5%; (compound 10 µM) 38.2% and 37.7% and 35.1%. The IC50 (curve of compound) was less than 31.6 nM.

Take `Cn1ncnc1[C@H]1c2n[nH]c(=O)c3cc(F)cc(c23)N[C@@H]1c1ccc(F)cc1` + Cc1cccc(N(C)C(=O)C2C(O)CCN2c2nc(C)cc(C(F)(F)F)c2C#N)c1: the IC50 reads like this: (curve of first compound, second compound 0.0316 µM) greater than 100 nM; (curve of first compound, second compound 0.1 µM) greater than 100 nM; (curve of first compound, second compound 0.316 µM) greater than 100 nM; (curve of first compound, second compound 1 µM) greater than 100 nM; (curve of first compound, second compound 3.16 µM) greater than 100 nM; (curve of first compound, second compound 10 µM) greater than 100 nM. In addition, the viability, T/C is, setting by setting: (second compound 0.0316 µM, first compound 0.000316 µM) 83.1%; (second compound 0.0316 µM, first compound 0.001 µM) 80%; (second compound 0.0316 µM, first compound 0.00316 µM) 92.3%; (second compound 0.0316 µM, first compound 0.01 µM) 74.1%; (second compound 0.0316 µM, first compound 0.0316 µM) 91.9%; (second compound 0.0316 µM, first compound 0.1 µM) 71.8%. The viability, T/C runs as follows: (second compound 0.1 µM, first compound 0.000316 µM) 94.8%; (second compound 0.1 µM, first compound 0.001 µM) 91.6%; (second compound 0.1 µM, first compound 0.00316 µM) 96.6%; (second compound 0.1 µM, first compound 0.01 µM) 73%; (second compound 0.1 µM, first compound 0.0316 µM) 88.7%; (second compound 0.1 µM, first compound 0.1 µM) 66%. Besides, the viability, T/C is 82.8% (second compound 0.316 µM, first compound 0.000316 µM); 82.5% (second compound 0.316 µM, first compound 0.001 µM); 89.5% (second compound 0.316 µM, first compound 0.00316 µM); 86.3% (second compound 0.316 µM, first compound 0.01 µM); 88.7% (second compound 0.316 µM, first compound 0.0316 µM); 86.5% (second compound 0.316 µM, first compound 0.1 µM). In addition, the viability, T/C is, setting by setting: (second compound 1 µM, first compound 0.000316 µM) 73.2%; (second compound 1 µM, first compound 0.001 µM) 67.6%; (second compound 1 µM, first compound 0.00316 µM) 92.6%; (second compound 1 µM, first compound 0.01 µM) 86.8%; (second compound 1 µM, first compound 0.0316 µM) 76.4%; (second compound 1 µM, first compound 0.1 µM) 78.6%. The viability, T/C was 67.4% (second compound 3.16 µM, first compound 0.000316 µM); 78.7% (second compound 3.16 µM, first compound 0.001 µM); 88.9% (second compound 3.16 µM, first compound 0.00316 µM); 77.6% (second compound 3.16 µM, first compound 0.01 µM); 87.5% (second compound 3.16 µM, first compound 0.0316 µM); 67.3% (second compound 3.16 µM, first compound 0.1 µM). Further, the viability, T/C is 76.3% (second compound 10 µM, first compound 0.000316 µM); 87.8% (second compound 10 µM, first compound 0.001 µM); 84.2% (second compound 10 µM, first compound 0.00316 µM); 77.4% (second compound 10 µM, first compound 0.01 µM); 86.2% (second compound 10 µM, first compound 0.0316 µM); 79.9% (second compound 10 µM, first compound 0.1 µM).

Take `O=c1[nH]cc(F)c(=O)[nH]1`: the viability, T/C was 119% and 102% and 97% (compound 0.0316 µM); 107% and 84.6% and 86.3% (compound 0.1 µM); 104% and 89.5% and 75.2% (compound 0.316 µM); 102% and 96.6% and 104% (compound 1 µM); 106% and 98.3% and 96.6% (compound 3.16 µM); 79.5% and 96.8% and 76.3% (compound 10 µM). The IC50 (curve of compound) is greater than 10000 nM.

As to `COc1cc2cc(C(=O)CCC(=O)O)sc2cc1OC`, the viability, T/C (compound 0.0316 µM) is 87.3% and 78.3% and 95.9%; the viability, T/C (compound 0.1 µM) is 84.1% and 94.8% and 93.8%; the viability, T/C (compound 0.316 µM) was 94.1% and 97.4% and 110%; the viability, T/C (compound 1 µM) was 89.5% and 93.5% and 88.7%; the viability, T/C (compound 3.16 µM) is 86.9% and 84.8% and 98.1%; the viability, T/C (compound 10 µM) is 112% and 90.1% and 96.6%. Moreover, the IC50 (curve of compound) was greater than 10000 nM.

Regarding `CNCc1ccc(-c2[nH]c3cc(F)cc4c3c2CCNC4=O)cc1`, the viability, T/C (compound 0.0316 µM) is 99.4% and 100% and 94.8%; the viability, T/C (compound 0.1 µM) was 77.4% and 81.4% and 75.4%; the viability, T/C (compound 0.316 µM) was 87.7% and 100% and 97.9%; the viability, T/C (compound 1 µM) was 76% and 91.1% and 107%; the viability, T/C (compound 3.16 µM) is 76% and 108% and 89%; the viability, T/C (compound 10 µM) was 73.8% and 87% and 79.3%. The IC50 (curve of compound) was greater than 10000 nM.

As for `COc1cccc(OCCCN)c1-c1cc(Nc2cnc(C#N)cn2)n[nH]1`, the viability, T/C (compound 0.00316 µM) is 97.4% and 92.9% and 79.1%; the viability, T/C (compound 0.01 µM) was 79.3% and 86.4% and 75.8%; the viability, T/C (compound 0.0316 µM) is 59% and 60.4% and 62.1%; the viability, T/C (compound 0.1 µM) was 49.5% and 47.9% and 49.9%; the viability, T/C (compound 0.316 µM) is 47.6% and 47.8% and 44.3%; the viability, T/C (compound 1 µM) was 35.3% and 32.9% and 35.2%. Besides, where the note is “curve of compound”, the 50% inhibitory concentration (IC50) was 109 nM and 86.4 nM and 114 nM.

The viability, T/C is the ratio of treated to control. As usually defined, the IC50 is the concentration needed to halve the response being measured.

For the origin of these results see PubChem BioAssay AID1963837 (Molecular Pharmacology Branch, DTP, NCI, 2024).
